Test results published in patent US11793849B2, “Method of Chinese herbal medicine extract used for treating multiple diseases caused by drug resistant bacteria infection” (priority 2016, dated 2023).
Read-outs that look alike come from different tables or passages of the source.

Tests used:
[1] = test system: MDRPA; assay: MIC determination, microdilution broth method;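 further: broth microdilution per NCCLS recommendations, testing Pithecellobium clypearia water or ethanol extracts against multidrug-resistant Pseudomonas aeruginosa, with MIC50 and MIC90 derived statistically from individual MICs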
[2] = test system: ATCC27853; assay: MIC determination, control strain; format: cell-based
[3] = 20 MDRPAs, EA = 60% ethanol extract
[4] = 20 MDRPAs, EA = 95% ethanol extract
[5] = MDRPAs P1-P20, single use, EA=P. clypearia 10% ethanol extract
[6] = MDRPAs P1-P20, single use, EA=P. clypearia water extract
[7] = Pseudomonas aeruginosa, read-out: MIC (single use), strain P1, EA=P. clypearia 10% ethanol extract
[8] = Pseudomonas aeruginosa, read-out: MIC (single use), strain P1, EA=P. clypearia water extract
[9] = Pseudomonas aeruginosa, read-out: MIC (single use), strain P2, EA=P. clypearia 10% ethanol extract
[10] = Pseudomonas aeruginosa, read-out: MIC (single use), strain P2, EA=P. clypearia water extract
[11] = Pseudomonas aeruginosa, read-out: MIC (single use), strain P3, EA=P. clypearia 10% ethanol extract
[12] = Pseudomonas aeruginosa, read-out: MIC (single use), strain P3, EA=P. clypearia water extract
[13] = Pseudomonas aeruginosa, read-out: MIC (single use), strain P4, EA=P. clypearia 10% ethanol extract
[14] = Pseudomonas aeruginosa, read-out: MIC (single use), strain P4, EA=P. clypearia water extract
[15] = Pseudomonas aeruginosa, read-out: MIC (single use), strain P5, EA=P. clypearia 10% ethanol extract
[16] = Pseudomonas aeruginosa, read-out: MIC (single use), strain P5, EA=P. clypearia water extract
[17] = Pseudomonas aeruginosa, read-out: MIC (single use), strain P6, EA=P. clypearia 10% ethanol extract
[18] = Pseudomonas aeruginosa, read-out: MIC (single use), strain P6, EA=P. clypearia water extract
[19] = Pseudomonas aeruginosa, read-out: MIC (single use), strain P7, EA=P. clypearia 10% ethanol extract
[20] = Pseudomonas aeruginosa, read-out: MIC (single use), strain P7, EA=P. clypearia water extract
[21] = Pseudomonas aeruginosa, read-out: MIC (single use), strain P8, EA=P. clypearia 10% ethanol extract
[22] = Pseudomonas aeruginosa, read-out: MIC (single use), strain P8, EA=P. clypearia water extract
[23] = Pseudomonas aeruginosa, read-out: MIC (single use), strain P9, EA=P. clypearia 10% ethanol extract
[24] = Pseudomonas aeruginosa, read-out: MIC (single use), strain P9, EA=P. clypearia water extract
[25] = Pseudomonas aeruginosa, read-out: MIC (single use), strain P10, EA=P. clypearia 10% ethanol extract
[26] = Pseudomonas aeruginosa, read-out: MIC (single use), strain P10, EA=P. clypearia water extract
[27] = Pseudomonas aeruginosa, read-out: MIC (single use), strain P11, EA=P. clypearia 10% ethanol extract
[28] = Pseudomonas aeruginosa, read-out: MIC (single use), strain P11, EA=P. clypearia water extract
[29] = Pseudomonas aeruginosa, read-out: MIC (single use), strain P12, EA=P. clypearia 10% ethanol extract
[30] = Pseudomonas aeruginosa, read-out: MIC (single use), strain P12, EA=P. clypearia water extract
[31] = Pseudomonas aeruginosa, read-out: MIC (single use), strain P13, EA=P. clypearia 10% ethanol extract
[32] = Pseudomonas aeruginosa, read-out: MIC (single use), strain P13, EA=P. clypearia water extract
[33] = Pseudomonas aeruginosa, read-out: MIC (single use), strain P14, EA=P. clypearia 10% ethanol extract
[34] = Pseudomonas aeruginosa, read-out: MIC (single use), strain P14, EA=P. clypearia water extract
[35] = Pseudomonas aeruginosa, read-out: MIC (single use), strain P15, EA=P. clypearia 10% ethanol extract
[36] = Pseudomonas aeruginosa, read-out: MIC (single use), strain P15, EA=P. clypearia water extract
[37] = Pseudomonas aeruginosa, read-out: MIC (single use), strain P16, EA=P. clypearia 10% ethanol extract
[38] = Pseudomonas aeruginosa, read-out: MIC (single use), strain P16, EA=P. clypearia water extract
[39] = Pseudomonas aeruginosa, read-out: MIC (single use), strain P17, EA=P. clypearia 10% ethanol extract
[40] = Pseudomonas aeruginosa, read-out: MIC (single use), strain P17, EA=P. clypearia water extract
[41] = Pseudomonas aeruginosa, read-out: MIC (single use), strain P18, EA=P. clypearia 10% ethanol extract
[42] = Pseudomonas aeruginosa, read-out: MIC (single use), strain P18, EA=P. clypearia water extract
[43] = Pseudomonas aeruginosa, read-out: MIC (single use), strain P19, EA=P. clypearia 10% ethanol extract
[44] = Pseudomonas aeruginosa, read-out: MIC (single use), strain P19, EA=P. clypearia water extract
[45] = Pseudomonas aeruginosa, read-out: MIC (single use), strain P20, EA=P. clypearia 10% ethanol extract
[46] = Pseudomonas aeruginosa, read-out: MIC (single use), strain P20, EA=P. clypearia water extract
[47] = single use, 20 MDRPAs, section of the 10% ethanol extract
[48] = single use, 20 MDRPAs, section of the 60% ethanol extract
[49] = single use, 20 MDRPAs, section of the 95% ethanol extract
[50] = EA=P. clypearia 10% ethanol extract, read-out: MIC (single use)
[51] = EA=P. clypearia water extract, read-out: MIC (single use)
[52] = single use, EA = 60% ethanol extract, read-out: MIC
[53] = single use, EA = 95% ethanol extract, read-out: MIC

NCC[C@H](O)C(=O)N[C@@H]1C[C@H](N)[C@@H](O[C@H]2O[C@H](CN)[C@@H](O)[C@H](O)[C@H]2O)[C@H](O)[C@H]1O[C@H]1O[C@H](CO)[C@@H](O)[C@H](N)[C@H]1O [AMK, Amikacin]
16 µg/mL: MIC [1, 41] | MIC [1, 42]
1 to 256 µg/mL: MIC Range [1, 3] | MIC Range [1, 4] | MIC Range [1, 5] | MIC Range [1, 6]
4 µg/mL: MIC [1, 11] | MIC [1, 12] | MIC [1, 25] | MIC [1, 26]
1 µg/mL: MIC50 [1, 3] | MIC50 [1, 4] | MIC50 [1, 5] | MIC50 [1, 6] | MIC50 ([1]; Pseudomonas aeruginosa) | MIC [1, 7] | MIC [1, 8] | MIC [1, 9] | MIC [1, 10] | MIC [1, 13] | MIC [1, 14] | MIC [1, 19] | MIC [1, 20] | MIC [1, 21] | MIC [1, 22] | MIC [1, 23] | MIC [1, 24] | MIC [1, 27] | MIC [1, 28] | MIC [1, 39] | MIC [1, 40] | MIC [1, 43] | MIC [1, 44] | MIC50 [1, 47] | MIC50 [1, 48] | MIC50 [1, 49]
256 µg/mL: MIC [1, 17] | MIC [1, 18] | MIC [1, 37] | MIC [1, 38]
32 µg/mL: MIC90 [1, 3] | MIC90 [1, 4] | MIC90 [1, 5] | MIC90 [1, 6] | MIC90 ([1]; Pseudomonas aeruginosa) | MIC [1, 29] | MIC [1, 30] | MIC90 [1, 47] | MIC90 [1, 48] | MIC90 [1, 49]
2 µg/mL: MIC [1, 15] | MIC [1, 16] | MIC [1, 31] | MIC [1, 32] | MIC [1, 33] | MIC [1, 34] | MIC [1, 35] | MIC [1, 36] | MIC [1, 45] | MIC [1, 46] | MIC [2, 50] | MIC [2, 51] | MIC [2, 52] | MIC [2, 53]

CCN1CCN(C(=O)N[C@@H](C(=O)N[C@@H]2C(=O)N3C(C(=O)O)=C(CSc4nnnn4C)CS[C@H]23)c2ccc(O)cc2)C(=O)C1=O [CFP, Cefoperazone]
1024 µg/mL: MIC (single use) ([1]; strain P16, EA=P. clypearia 10% ethanol extract) | MIC (single use) ([1]; strain P16, EA=P. clypearia water extract) | MIC (single use) ([1]; strain P20, EA=P. clypearia 10% ethanol extract) | MIC (single use) ([1]; strain P20, EA=P. clypearia water extract)
8 µg/mL: MIC [1, 13] | MIC [1, 14] | MIC [1, 25] | MIC [1, 26] | MIC [1, 27] | MIC [1, 28] | MIC [1, 33] | MIC [1, 34] | MIC [2, 50] | MIC [2, 51] | MIC [2, 52] | MIC [2, 53]
8 to 512 µg/mL: MIC Range [1, 3] | MIC Range [1, 4] | MIC Range [1, 5] | MIC Range [1, 6]
> 512 µg/mL: MIC [1, 37] | MIC [1, 38] | MIC [1, 45] | MIC [1, 46]
64 µg/mL: MIC50 [1, 3] | MIC50 [1, 4] | MIC50 [1, 5] | MIC50 [1, 6] | MIC50 ([1]; Pseudomonas aeruginosa) | MIC [1, 23] | MIC [1, 24] | MIC [1, 35] | MIC [1, 36] | MIC [1, 43] | MIC [1, 44] | MIC50 [1, 47] | MIC50 [1, 48] | MIC50 [1, 49]
256 µg/mL: MIC [1, 9] | MIC [1, 10] | MIC [1, 31] | MIC [1, 32] | MIC [1, 41] | MIC [1, 42]
512 µg/mL: MIC90 [1, 3] | MIC90 [1, 4] | MIC90 [1, 5] | MIC90 [1, 6] | MIC90 ([1]; Pseudomonas aeruginosa) | MIC [1, 15] | MIC [1, 16] | MIC [1, 17] | MIC [1, 18] | MIC [1, 19] | MIC [1, 20] | MIC [1, 29] | MIC [1, 30] | MIC90 [1, 47] | MIC90 [1, 48] | MIC90 [1, 49]
128 µg/mL: MIC [1, 7] | MIC [1, 8]
16 µg/mL: MIC [1, 11] | MIC [1, 12] | MIC [1, 21] | MIC [1, 22] | MIC [1, 39] | MIC [1, 40]
